Source: patent US20260365642A1, “ANTIPARASITIC COMPOUNDS” (Animol Discovery, Inc., priority 2023, published 2026)

Each compound was assayed on Dirofilaria immitis L1 larvae (assay: Screening against microfilaria (L1 larvae) of Dirofilaria immitis, survival/motility). Settings: 72 h, read-out: Ranked D. immitis L1 MED Activity.
Assay type: in vivo
Experimental: Example 44. Screening of Compounds Against Microfilaria of Dirofilaria immitis
To evaluate the efficacy of compounds of the disclosure against Dirofilaria immitis, L1 stage larvae were exposed to various concentrations of the compounds to determine survival or paralysis of the larvae. Results are reported as the minimum effective dose (MED), defined as the concentration required to eliminate motility.
To perform the assay, microfilaria of Dirofilaria immitis were added to the wells of a microtiter plate containing buffer and the test compounds in DMSO. Microfilaria exposed to DMSO alone served as controls. An assessment was conducted at 72 hours to determine survival of the microfilaria.

SMILES	minimal effective concentration [µM]
CN(CC1CCCN(S(C)(=O)=O)C1)c1cc(N2CCCC3(CCCCC3)C2)nc(C(F)(F)F)n1 (stereo not shown) [Compound 14, N-methyl-N-((1-(methylsulfonyl)piperidin-3-yl)methyl)-6-(2-azaspiro[5.5]undecan-2-yl)-2-(trifluoromethyl)pyrimidin-4-amine]	> 100000
COC(=O)N1CCCC(CN(C)c2cc(N3CCCC4(CCCCC4)C3)nc(C(F)(F)F)n2)C1 (stereo not shown) [Compound 36, methyl 3-(((6-(2-azaspiro[5.5]undecan-2-yl)-2-(trifluoromethyl)pyrimidin-4-yl)(methyl)amino)methyl)piperidine-1-carboxylate]	> 100000
CCN(CC1CN(S(C)(=O)=O)CCO1)c1cc(N2CCCC3(CCCCC3)C2)nc(C(F)(F)F)n1 (stereo not shown) [Compound 38, N-ethyl-N-((4-(methylsulfonyl)morpholin-2-yl)methyl)-6-(2-azaspiro[5.5]undecan-2-yl)-2-(trifluoromethyl)pyrimidin-4-amine]	< 30000
CN(Cc1ccc(S(C)(=O)=O)cc1)c1cc(N2CCCC3(CCCCC3)C2)nc(C(F)(F)F)n1 [Compound 6, N-methyl-N-(4-(methylsulfonyl)benzyl)-6-(2-azaspiro[5.5]undecan-2-yl)-2-(trifluoromethyl)pyrimidin-4-amine]	> 100000
CN(CC1CN(S(C)(=O)=O)CCO1)c1cc(N2CC3CC(C2)O3)nc(C(F)(F)F)n1 (stereo not shown) [Compound 18, 6-(6-oxa-3-azabicyclo[3.1.1]heptan-3-yl)-N-methyl-N-((4-(methylsulfonyl)morpholin-2-yl)methyl)-2-(trifluoromethyl)pyrimidin-4-amine]	> 100000
CN(CC1CN(S(C)(=O)=O)CCS1(=O)=O)c1cc(N2CCS(=O)(=O)C3(CCCCC3)C2)nc(C(F)(F)F)n1 (stereo not shown) [Compound 29, 4-(6-(methyl((4-(methylsulfonyl)-1,1-dioxidothiomorpholin-2-yl)methyl)amino)-2-(trifluoromethyl)pyrimidin-4-yl)-1-thia-4-azaspiro[5.5]undecane 1,1-dioxide]	< 30000
CN(CC1CN(S(C)(=O)=O)CCO1)c1cc(N2CCCC3(CCC(F)(F)CC3)C2)nc(C(F)(F)F)n1 (stereo not shown) [Compound 40, 6-(9,9-difluoro-2-azaspiro[5.5]undecan-2-yl)-N-methyl-N-((4-(methylsulfonyl)morpholin-2-yl)methyl)-2-(trifluoromethyl)pyrimidin-4-amine]	< 30000
CN(CC1CN(S(C)(=O)=O)CCS1)c1cc(N2CCOC3(CCCCC3)C2)nc(C(F)(F)F)n1 (stereo not shown) [Compound 26, N-methyl-N-((4-(methylsulfonyl)thiomorpholin-2-yl)methyl)-6-(1-oxa-4-azaspiro[5.5]undecan-4-yl)-2-(trifluoromethyl)pyrimidin-4-amine]	< 30000
CN(CC1CN(S(C)(=O)=O)CCO1)c1cc(N2CC3CCC(C2)O3)nc(C(F)(F)F)n1 (stereo not shown) [Compound 17, 6-(8-oxa-3-azabicyclo[3.2.1]octan-3-yl)-N-methyl-N-((4-(methylsulfonyl)morpholin-2-yl)methyl)-2-(trifluoromethyl)pyrimidin-4-amine]	> 100000
CN(CC1CN(S(C)(=O)=O)CCC1(F)F)c1cc(N2CCC(F)(F)C3(CCCCC3)C2)nc(C(F)(F)F)n1 (stereo not shown) [Compound 22, N-((4,4-difluoro-1-(methylsulfonyl)piperidin-3-yl)methyl)-6-(5,5-difluoro-2-azaspiro[5.5]undecan-2-yl)-N-methyl-2-(trifluoromethyl)pyrimidin-4-amine]	> 100000
CN(CCN1CCCS1(=O)=O)c1cc(N2CCCC3(CCCCC3)C2)nc(C(F)(F)F)n1 [Compound 11, 2-(2-((6-(2-azaspiro[5.5]undecan-2-yl)-2-(trifluoromethyl)pyrimidin-4-yl)(methyl)amino)ethyl)isothiazolidine 1,1-dioxide]	< 30000
CN(CC1CN(S(C)(=O)=O)CCC1(F)F)c1cc(N2CCOC3(CCCCC3)C2)nc(C(F)(F)F)n1 (stereo not shown) [Compound 24, N-((4,4-difluoro-1-(methylsulfonyl)piperidin-3-yl)methyl)-N-methyl-6-(1-oxa-4-azaspiro[5.5]undecan-4-yl)-2-(trifluoromethyl)pyrimidin-4-amine]	< 10000
CN(CCC1CN(S(C)(=O)=O)CCO1)c1cc(N2CCCC3(CCCCC3)C2)nc(C(F)(F)F)n1 (stereo not shown) [Compound 44, N-methyl-N-(2-(4-(methylsulfonyl)morpholin-2-yl)ethyl)-6-(2-azaspiro[5.5]undecan-2-yl)-2-(trifluoromethyl)pyrimidin-4-amine]	> 100000
CN(CC1CN(S(C)(=O)=O)CCO1)c1cc(N2CCOC3(CCCC3)C2)nc(C(F)(F)F)n1 (stereo not shown) [Compound 16, N-methyl-N-((4-(methylsulfonyl)morpholin-2-yl)methyl)-6-(6-oxa-9-azaspiro[4.5]decan-9-yl)-2-(trifluoromethyl)pyrimidin-4-amine]	< 30000
CN(CC1CN(S(C)(=O)=O)CCO1)c1cc(N2CCSC3(CCCCC3)C2)nc(C(F)(F)F)n1 (stereo not shown) [Compound 28, N-methyl-N-((4-(methylsulfonyl)morpholin-2-yl)methyl)-6-(1-thia-4-azaspiro[5.5]undecan-4-yl)-2-(trifluoromethyl)pyrimidin-4-amine]	< 10000
CN(C)S(=O)(=O)N1CC2(CN(c3cc(N4CCCC5(CCCCC5)C4)nc(C(F)(F)F)n3)C2)C1 [Compound 10, 6-(6-(2-azaspiro[5.5]undecan-2-yl)-2-(trifluoromethyl)pyrimidin-4-yl)-N,N-dimethyl-2,6-diazaspiro[3.3]heptane-2-sulfonamide]	> 100000
CN(CCOc1ccccc1)c1cc(N2CCCC3(CCCCC3)C2)nc(C(F)(F)F)n1 [Compound 8, N-methyl-N-(2-phenoxyethyl)-6-(2-azaspiro[5.5]undecan-2-yl)-2-(trifluoromethyl)pyrimidin-4-amine]	> 100000
CN(CC1CN(S(C)(=O)=O)CCO1)c1cc(N2CCOC3(CCC(F)(F)CC3)C2)nc(C(F)(F)F)n1 (stereo not shown) [Compound 21, 6-(9,9-difluoro-1-oxa-4-azaspiro[5.5]undecan-4-yl)-N-methyl-N-((4-(methylsulfonyl)morpholin-2-yl)methyl)-2-(trifluoromethyl)pyrimidin-4-amine]	< 10000
CN(CC1CN(S(C)(=O)=O)CCCO1)c1cc(N2CCOC3(CCCCC3)C2)nc(C(F)(F)F)n1 (stereo not shown) [Compound 31, N-methyl-N-((4-(methylsulfonyl)-1,4-oxazepan-2-yl)methyl)-6-(1-oxa-4-azaspiro[5.5]undecan-4-yl)-2-(trifluoromethyl)pyrimidin-4-amine]	< 30000
CN(CC1CN(S(C)(=O)=O)CCC1(F)F)c1cc(N2CCCC3(CCCCC3)C2)nc(C(F)(F)F)n1 (stereo not shown) [Compound 41, N-((4,4-difluoro-1-(methylsulfonyl)piperidin-3-yl)methyl)-N-methyl-6-(2-azaspiro[5.5]undecan-2-yl)-2-(trifluoromethyl)pyrimidin-4-amine]	< 30000
CN(C[C@H]1CN(S(C)(=O)=O)CCO1)c1cc(N2CCCC3(CCCCC3)C2)nc(C(F)(F)F)n1 [Compound 1, (S)-N-methyl-N-((4-(methylsulfonyl)morpholin-2-yl)methyl)-6-(2-azaspiro[5.5]undecan-2-yl)-2-(trifluoromethyl)pyrimidin-4-amine]	< 10000
CS(=O)(=O)N1CCOC(CN(Cc2ccccc2)c2cc(N3CCCC4(CCCCC4)C3)nc(C(F)(F)F)n2)C1 (stereo not shown) [Compound 37, N-benzyl-N-((4-(methylsulfonyl)morpholin-2-yl)methyl)-6-(2-azaspiro[5.5]undecan-2-yl)-2-(trifluoromethyl)pyrimidin-4-amine]	> 100000
CN(Cc1ccc(S(=O)(=O)N(C)C)cc1)c1cc(N2CCCC3(CCCCC3)C2)nc(C(F)(F)F)n1 [Compound 5, 4-(((6-(2-azaspiro[5.5]undecan-2-yl)-2-(trifluoromethyl)pyrimidin-4-yl)(methyl)amino)methyl)-N,N-dimethylbenzenesulfonamide]	> 100000
CS(=O)(=O)N1CCOC2CN(c3cc(N4CCOC5(CCCCC5)C4)nc(C(F)(F)F)n3)CCC21 (stereo not shown) [Compound 34, 4-(6-(1-(methylsulfonyl)octahydro-6H-pyrido[3,4-b][1,4]oxazin-6-yl)-2-(trifluoromethyl)pyrimidin-4-yl)-1-oxa-4-azaspiro[5.5]undecane]	< 30000
CN(CC1CN(S(C)(=O)=O)CCO1)c1cc(N2CCC(F)(F)C3(CCCCC3)C2)nc(C(F)(F)F)n1 (stereo not shown) [Compound 23, 6-(5,5-difluoro-2-azaspiro[5.5]undecan-2-yl)-N-methyl-N-((4-(methylsulfonyl)morpholin-2-yl)methyl)-2-(trifluoromethyl)pyrimidin-4-amine]	< 10000
CN(CC1CN(S(C)(=O)=O)CCO1)c1cc(N2CCOC3(CCCCC3)C2)nc(C(F)(F)F)n1 (racemic) [Compound 4, (R) and (S)-N-methyl-N-((4-(methylsulfonyl)morpholin-2-yl)methyl)-6-(1-oxa-4-azaspiro[5.5]undecan-4-yl)-2-(trifluoromethyl)pyrimidin-4-amine]	< 30000
CN(CC1CN(S(C)(=O)=O)C1)c1cc(N2CCCC3(CCCCC3)C2)nc(C(F)(F)F)n1 [Compound 13, N-methyl-N-((1-(methylsulfonyl)azetidin-3-yl)methyl)-6-(2-azaspiro[5.5]undecan-2-yl)-2-(trifluoromethyl)pyrimidin-4-amine]	< 10000
CN(C)CCN(CC1CN(S(C)(=O)=O)CCO1)c1cc(N2CCCC3(CCCCC3)C2)nc(C(F)(F)F)n1 (stereo not shown) [Compound 39, N1-(6-(2-azaspiro[5.5]undecan-2-yl)-2-(trifluoromethyl)pyrimidin-4-yl)-N2,N2-dimethyl-N1-((4-(methylsulfonyl)morpholin-2-yl)methyl)ethane-1,2-diamine]	< 10000
